Entries after “also recorded” stand apart in the source; their conditions may differ.
What was measured:
Collagen Type 1 mRNA = test: Liver gene expression by quantitative RT-PCR: Collagen Type 1; assay type: in vivo, C57BL/6 mice
Protocol: (§1) Total RNA was extracted from liver samples using RNAiso (Takara Bio, Japan) according to the manufacturer's instructions. One μg of RNA was reverse-transcribed using a reaction mixture containing 4.4 mM MgCl2 (F. Hoffmann-La Roche, Switzerland), 40 U RNase inhibitor (Toyobo, Japan), 0.5 mM dNTP (Promega, USA), 6.28 μM random hexamer (Promega), 5× first strand buffer (Promega), 10 mM dithiothreitol (Invitrogen, USA) and 200 U MMLV-RT (Invitrogen) in a final volume of 20 μL. The reaction was carried out for 1 hour at 37° C., followed by 5 minutes at 99° C. Real-time PCR was performed using real-time PCR DICE and SYBR premix Taq (Takara Bio). To calculate the relative mRNA expression level, the expression of each gene was normalized to that of reference gene 36B4 (gene symbol: Rp1p0). Information of PCR-primer sets are described in Table 1. [table] […] P values<0.05 were considered statistically significant. […] Results were expressed as mean±SD.

FLAP mRNA = test: Liver gene expression by quantitative RT-PCR: FLAP; assay type: in vivo, C57BL/6 mice; conditions: 100 mg/kg oral once daily, 8 to 12 weeks of age (MN-001-high)
Protocol: as §1

[1] = Liver weight and liver-to-body weight ratio in STAM mice; assay type: in vivo, C57BL/6 mice
Excerpt: Mice in all groups will be sacrificed for the following assays at 12 weeks of age. Individual liver weight will be measured, and liver-to-body weight ratio will be calculated. Liver hydroxyproline will be quantified by a hydrolysis method. Histopathological analyses of liver sections (according to routine methods) HE staining (to estimate NAFLD Activity score), Sirius-red staining (to estimate the percentage of fibrosis area). F4/80 immunostaining (to estimate the percentage of inflammation area), Alpha-SMA immunostaining (to estimate the percentage of a-SMA positive area) are performed. Gene expression assays using total RNA from the liver Real-time RT-PCR analysis will be performed for TIMP-1, Collagen Type 1, α-SMA, 5-lipoxygenase, FLAP and LTC4 synthase are also performed. Statistical tests will be performed using Bonferroni Multiple Comparison Test. P values<0.05 will be considered statistically significant. […] P values<0.05 were considered statistically significant. […] Results were expressed as mean±SD.

Five-Lipoxygenase mRNA = test: Liver gene expression by quantitative RT-PCR: Five-Lipoxygenase; assay type: in vivo, C57BL/6 mice
Protocol: as §1

LTC4 synthase mRNA = test: Liver gene expression by quantitative RT-PCR: LTC4 synthase; assay type: in vivo, C57BL/6 mice; conditions: Telmisartan 10 mg/kg oral once daily, 8 to 12 weeks of age
Protocol: as §1

[2] = Telmisartan 10 mg/kg oral once daily, 8 to 12 weeks of age
Protocol: NASH was induced in 50 male mice by a single subcutaneous injection of 200 μg streptozotocin (STZ, Sigma-Aldrich, USA) solution 2 days after birth and feeding with high fat diet (HFD, 57 kcal % fat, cat#: HFD32, CLEA Japan, Japan) after 4 weeks of age.
MN-001 was administered at doses of 10, 30, and 100 mg/kg once daily. Telmisartan was administered at a dose of 10 mg/kg once daily.
Statistical analyses were performed using Bonferroni Multiple Comparison Test on GraphPad Prism 4 (GraphPad Software, USA). P values<0.05 were considered statistically significant. A trend or tendency was assumed when a one-tailed t-test returned P values<0.10. Results were expressed as mean±SD.
The viability, clinical signs and behavior were monitored daily. Body weight was recorded before the treatment. […] The animals were sacrificed by exsanguination through direct cardiac puncture under ether anesthesia (Wako Pure Chemical Industries).

[3] = 100 mg/kg oral once daily, 8 to 12 weeks of age (MN-001-high)
[4] = any doses of MN-001 (10, 30, 100 mg/kg oral once daily)
[5] = 10 mg/kg oral once daily, 8 to 12 weeks of age (MN-001-low; Telmisartan)
[6] = Telmisartan 10 mg/kg oral once daily, 8 to 12 weeks of age

SMILES	Collagen Type 1 mRNA expression levels compared with the Vehicle group (Collagen Type 1 mRNA; [3])	FLAP mRNA expression levels compared with the Vehicle group (FLAP mRNA)	Mean liver weight compared with the Vehicle group [1, 4]	Mean liver-to-body weight ratio compared with the Vehicle group [1, 4]	Five-Lipoxygenase mRNA expression levels compared with the Vehicle group (Five-Lipoxygenase mRNA; [5])	Five-Lipoxygenase mRNA expression levels compared with the Vehicle group (Five-Lipoxygenase mRNA; 30 mg/kg oral once daily, 8 to 12 weeks of age (MN-001-middle))	Five-Lipoxygenase mRNA expression levels compared with the Vehicle group (Five-Lipoxygenase mRNA; [3])	Collagen Type 1 mRNA expression levels compared with the Vehicle group (Collagen Type 1 mRNA; [6])	LTC4 synthase mRNA expression levels compared with the Vehicle group (LTC4 synthase mRNA)	Mortality (animals found dead) [2]	Mean liver weight compared with the Vehicle group [1, 6]	Mean liver-to-body weight ratio compared with the Vehicle group [1, 6]
CCCc1c(SCCCOc2ccc(C(C)=O)c(OCCCC(=O)O)c2CCC)ccc(C(C)=O)c1O [MN-001]	tended to decrease	tended to increase	no significant differences	no significant differences	no significant differences	no significant differences	tended to decrease					
CCCc1nc2c(C)cc(-c3nc4ccccc4n3C)cc2n1Cc1ccc(-c2ccccc2C(=O)O)cc1 [Telmisartan, reference compound]					tended to decrease			significantly down-regulated	tended to decrease	One of the Telmisartan group was found dead on day 24	significantly decreased; also recorded: significant decrease	significant decrease
